Results taken from PubChem BioAssay (NCI).
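1) Cells in 96-well plates. 2) Compound, 48 h, 5 concentrations. 3) Linear interpolation between surrounding doses. 4) Unreached endpoint = highest concentration. GI50: concentration for 50% inhibition of growth. TGI: total growth inhibition.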

Tests used:
Assay in all cases: inhibition of tumour cell growth, NCI panel, 48 h
[1] = system: 786-0 renal
[2] = system: SN12C renal
[3] = system: M14 melanoma
[4] = system: A498 renal
[5] = system: SF-268 CNS
[6] = system: HOP-62 NSCLC
[7] = system: MDA-MB-435
[8] = system: COLO 205 colon
[9] = system: EKVX NSCLC
[10] = system: NCI-H23 lung
[11] = system: SR leukemia
[12] = system: RXF 393 renal
[13] = system: UO-31 renal
[14] = system: NCI/ADR-RES ovarian
[15] = system: RPMI-8226 leukemia
[16] = system: OVCAR-8 ovarian
[17] = system: T-47D breast
[18] = system: HCT-15 colon
[19] = system: HS 578T breast
[20] = system: OVCAR-5 ovarian
[21] = system: DU-145 prostate
[22] = system: HCT-116 colon
[23] = system: LOX IMVI melanoma
[24] = system: SK-MEL-5 melanoma
[25] = system: SK-MEL-2 melanoma
[26] = system: MALME-3M melanoma
[27] = system: IGROV1 ovarian
[28] = system: PC-3 prostate
[29] = system: SK-OV-3 ovarian
[30] = system: A549 NSCLC
[31] = system: CAKI-1 renal
[32] = system: HCC-2998 colon
[33] = system: SW-620 colon
[34] = system: MOLT-4 leukemia
[35] = system: ACHN renal
[36] = system: MDA-MB-231 breast
[37] = system: HT29 colon
[38] = system: NCI-H522 lung
[39] = system: BT-549 breast
[40] = system: CCRF-CEM leukemia
[41] = system: K-562 leukemia
[42] = system: OVCAR-4 ovarian
[43] = system: SNB-75 CNS
[44] = system: SF-539 CNS
[45] = system: U251 CNS
[46] = system: KM12 colon
[47] = system: MCF7 breast
[48] = system: SK-MEL-28 melanoma
[49] = system: TK-10 renal
[50] = system: HOP-92 NSCLC
[51] = system: NCI-H460 lung
[52] = system: SNB-19 CNS
[53] = system: SF-295 CNS
[54] = system: HL-60(TB) leukemia
[55] = system: NCI-H226 lung
[56] = system: UACC-62 melanoma
[57] = system: UACC-257 melanoma

## Cc1ccc(-c2nnc(SCc3ccc(O)c4ncccc34)n2-c2ccccc2)cc1
[1]
  GI50: 509 nM
  TGI: 26700 nM
[2]
  GI50: 329 nM
  TGI: > 100000 nM
[3]
  GI50: 166 nM
  TGI: 3240 nM
[4]
  GI50: 1500 nM
  TGI: 13200 nM
[5]
  GI50: 90.6 nM
  TGI: 10900 nM
[6]
  GI50: 345 nM
  TGI: 2630 nM
[7]
  GI50: 110 nM
  TGI: > 100000 nM
[8]
  GI50: 1440 nM
  TGI: 6090 nM
[9]
  GI50: 395 nM
  TGI: > 60800 nM
[10]
  GI50: 254 nM
  TGI: > 39800 nM
[11]
  GI50: 78.2 nM
  TGI: > 100000 nM
[12]
  GI50: 399 nM
  TGI: 24000 nM
[13]
  GI50: 155 nM
  TGI: 1260 nM
[14]
  GI50: 147 nM
  TGI: 2270 nM
[15]
  GI50: 232 nM
  TGI: > 100000 nM
[16]
  GI50: 175 nM
  TGI: 2140 nM
[17]
  GI50: 289 nM
  TGI: 3530 nM
[18]
  GI50: 66.6 nM
  TGI: > 100000 nM
[19]
  GI50: 236 nM
  TGI: 2000 nM
[20]
  GI50: 1130 nM
  TGI: > 100000 nM
[21]
  GI50: 298 nM
  TGI: > 100000 nM
[22]
  GI50: 46.7 nM
  TGI: > 35300 nM
[23]
  GI50: 206 nM
  TGI: 3970 nM
[24]
  GI50: 337 nM
[25]
  GI50: 276 nM
  TGI: 875 nM
[26]
  GI50: 353 nM
  TGI: 6670 nM
[27]
  GI50: 284 nM
  TGI: > 100000 nM
[28]
  GI50: 164 nM
  TGI: > 100000 nM
[29]
  GI50: 370 nM
  TGI: 4050 nM
[30]
  GI50: 366 nM
  TGI: > 100000 nM
[31]
  GI50: 312 nM
  TGI: 7790 nM
[32]
  GI50: 326 nM
  TGI: > 100000 nM
[33]
  GI50: 192 nM
  TGI: > 100000 nM
[34]
  GI50: 196 nM
  TGI: > 100000 nM
[35]
  GI50: 144 nM
  TGI: 8020 nM
[36]
  GI50: 439 nM
  TGI: 24900 nM
[37]
  GI50: 3780 nM
  TGI: > 100000 nM
[38]
  GI50: 305 nM
  TGI: 4240 nM
[39]
  GI50: 201 nM
  TGI: > 21700 nM
[40]
  GI50: 94.9 nM
  TGI: > 100000 nM
[41]
  GI50: 217 nM
  TGI: > 100000 nM
[42]
  GI50: 431 nM
  TGI: > 100000 nM
[43]
  GI50: 248 nM
  TGI: 2680 nM
[44]
  GI50: 272 nM
  TGI: 3160 nM
[45]
  GI50: 98.9 nM
  TGI: 1740 nM
[46]
  GI50: 294 nM
  TGI: > 100000 nM
[47]
  GI50: 81.9 nM
  TGI: > 100000 nM
[48]
  GI50: 376 nM
  TGI: > 100000 nM
[49]
  GI50: 249 nM
  TGI: 4400 nM
[50]
  GI50: 195 nM
  TGI: 1250 nM
[51]
  GI50: 38.2 nM
  TGI: 1580 nM
[52]
  GI50: 231 nM
  TGI: 31100 nM
[53]
  GI50: 265 nM
  TGI: 4270 nM
[54]
  GI50: 161 nM
  TGI: > 39800 nM
[55]
  GI50: 973 nM
  TGI: > 100000 nM
[56]
  GI50: 347 nM
  TGI: 2210 nM
[57]
  GI50: 388 nM
  TGI: 4220 nM

## COc1ccc(/C=N\NC(=O)c2ccc3nc(-c4ccc(Br)cc4)[nH]c3c2)cc1
[1]
  GI50: 2050 nM
  TGI: 4200 nM
[2]
  GI50: 2400 nM
  TGI: 5940 nM
[3]
  GI50: 2630 nM
  TGI: 7470 nM
[4]
  GI50: 2260 nM
  TGI: 5250 nM
[5]
  GI50: 2310 nM
  TGI: 5930 nM
[6]
  GI50: 1870 nM
  TGI: 4210 nM
[7]
  GI50: 2910 nM
  TGI: 8110 nM
[8]
  GI50: 1940 nM
  TGI: 5360 nM
[9]
  GI50: 2220 nM
  TGI: 5270 nM
[10]
  GI50: 2430 nM
  TGI: 6050 nM
[11]
  GI50: 2100 nM
  TGI: 6280 nM
[12]
  GI50: 1620 nM
  TGI: 3490 nM
[13]
  GI50: 1700 nM
  TGI: 5440 nM
[14]
  GI50: 17800 nM
  TGI: > 100000 nM
[15]
  GI50: 2120 nM
  TGI: 8380 nM
[16]
  GI50: 2200 nM
  TGI: 5160 nM
[17]
  GI50: 1850 nM
  TGI: 4310 nM
[18]
  GI50: 3700 nM
  TGI: 22900 nM
[19]
  GI50: 2340 nM
  TGI: 5470 nM
[20]
  GI50: 2680 nM
  TGI: 7270 nM
[21]
  GI50: 3070 nM
  TGI: 9390 nM
[22]
  GI50: 2650 nM
  TGI: 6070 nM
[23]
  GI50: 1930 nM
  TGI: 4170 nM
[24]
  GI50: 2030 nM
  TGI: 4380 nM
[26]
  GI50: 1760 nM
  TGI: 3790 nM
[27]
  GI50: 2220 nM
  TGI: 7240 nM
[28]
  GI50: 1790 nM
  TGI: 3720 nM
[29]
  GI50: 2370 nM
  TGI: 15500 nM
[30]
  GI50: 2420 nM
  TGI: 6030 nM
[31]
  GI50: 2310 nM
  TGI: 6670 nM
[32]
  GI50: 3060 nM
  TGI: 9130 nM
[33]
  GI50: 2170 nM
  TGI: 4640 nM
[34]
  GI50: 4300 nM
  TGI: > 100000 nM
[35]
  GI50: 2270 nM
  TGI: 6220 nM
[36]
  GI50: 2430 nM
  TGI: 5930 nM
[37]
  GI50: 1700 nM
  TGI: 3300 nM
[38]
  GI50: 2590 nM
  TGI: 11200 nM
[39]
  GI50: 2640 nM
  TGI: 7060 nM
[40]
  GI50: 6910 nM
  TGI: > 100000 nM
[41]
  GI50: 2890 nM
  TGI: 10400 nM
[42]
  GI50: 2140 nM
  TGI: 5160 nM
[43]
  GI50: 1930 nM
  TGI: 4690 nM
[44]
  GI50: 1760 nM
  TGI: 3470 nM
[45]
  GI50: 1940 nM
  TGI: 3550 nM
[46]
  GI50: 3190 nM
  TGI: 12800 nM
[47]
  GI50: 1920 nM
  TGI: 5810 nM
[48]
  GI50: 1980 nM
  TGI: 4100 nM
[49]
  GI50: 2380 nM
  TGI: 5060 nM
[50]
  GI50: 1900 nM
  TGI: 4650 nM
[51]
  GI50: 1740 nM
  TGI: 3370 nM
[52]
  GI50: 2810 nM
  TGI: 7390 nM
[53]
  GI50: 1990 nM
  TGI: 4270 nM
[54]
  GI50: 36600 nM
  TGI: > 100000 nM
[55]
  GI50: 2650 nM
  TGI: 16800 nM
[56]
  GI50: 2510 nM
  TGI: 7200 nM
[57]
  GI50: 2140 nM
  TGI: 4780 nM
